Laboratory results: PubChem BioAssay (NCI)
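Abbreviation: GI50, concentration required for 50% inhibition of growth. The concentration for full growth arrest is given as TGI.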

Legend:
Test in all cases: inhibition of tumour cell growth, NCI panel, 384-well format
HOP-92 NSCLC = tested on: HOP-92 NSCLC
UO-31 renal = tested on: UO-31 renal
PC-3 prostate = tested on: PC-3 prostate
LOX IMVI melanoma = tested on: LOX IMVI melanoma
OVCAR-4 ovarian = tested on: OVCAR-4 ovarian
HOP-62 NSCLC = tested on: HOP-62 NSCLC
786-0 renal = tested on: 786-0 renal
CAKI-1 renal = tested on: CAKI-1 renal
HCT-15 colon = tested on: HCT-15 colon
CCRF-CEM leukemia = tested on: CCRF-CEM leukemia
SF-539 CNS = tested on: SF-539 CNS
U251 glioblastoma = tested on: U251 glioblastoma
OVCAR-3 ovarian = tested on: OVCAR-3 ovarian
ACHN renal = tested on: ACHN renal
T-47D breast = tested on: T-47D breast
SN12C renal = tested on: SN12C renal
UACC-62 melanoma = tested on: UACC-62 melanoma
OVCAR-8 ovarian = tested on: OVCAR-8 ovarian
NCI-H522 lung = tested on: NCI-H522 lung
DU-145 prostate = tested on: DU-145 prostate
NCI-H226 lung = tested on: NCI-H226 lung
MALME-3M melanoma = tested on: MALME-3M melanoma
RPMI-8226 leukemia = tested on: RPMI-8226 leukemia
NCI-H23 lung = tested on: NCI-H23 lung
SF-268 CNS = tested on: SF-268 CNS
KM12 colon = tested on: KM12 colon
COLO 205 colon = tested on: COLO 205 colon
IGROV1 ovarian = tested on: IGROV1 ovarian
MDA-MB-468 breast = tested on: MDA-MB-468 breast
MOLT-4 leukemia = tested on: MOLT-4 leukemia
M14 melanoma = tested on: M14 melanoma
TK-10 renal = tested on: TK-10 renal
NCI-H460 NSCLC = tested on: NCI-H460 NSCLC
A549 NSCLC = tested on: A549 NSCLC
HS 578T breast = tested on: HS 578T breast
UACC-257 melanoma = tested on: UACC-257 melanoma
K-562 leukemia = tested on: K-562 leukemia
SF-295 CNS = tested on: SF-295 CNS
RXF 393 renal = tested on: RXF 393 renal
NCI-H322M lung = tested on: NCI-H322M lung
SK-OV-3 ovarian = tested on: SK-OV-3 ovarian
SR leukemia = tested on: SR leukemia
EKVX NSCLC = tested on: EKVX NSCLC
SK-MEL-5 melanoma = tested on: SK-MEL-5 melanoma
HCT-116 colon = tested on: HCT-116 colon
A498 renal = tested on: A498 renal
SNB-75 CNS = tested on: SNB-75 CNS
HT29 colon = tested on: HT29 colon
BT-549 breast = tested on: BT-549 breast
HL-60(TB) leukemia = tested on: HL-60(TB) leukemia
SW-620 colon = tested on: SW-620 colon
SK-MEL-28 melanoma = tested on: SK-MEL-28 melanoma
MDA-MB-231 breast = tested on: MDA-MB-231 breast
NCI/ADR-RES ovarian = tested on: NCI/ADR-RES ovarian
HCC-2998 colon = tested on: HCC-2998 colon
MDA-MB-435 melanoma = tested on: MDA-MB-435 melanoma
MCF7 breast = tested on: MCF7 breast
SNB-19 CNS = tested on: SNB-19 CNS

SMILES: O=C(NOCCO)c1ccc2cncn2c1Nc1ccc(I)cc1F
- GI50 (HOP-92 NSCLC): 0.012 µM
- TGI (HOP-92 NSCLC): 0.198 µM
- GI50 (UO-31 renal): 0.0408 µM
- TGI (UO-31 renal): 20.2 µM
- GI50 (PC-3 prostate): 18.1 µM
- TGI (PC-3 prostate): 35.4 µM
- GI50 (LOX IMVI melanoma): < 0.01 µM
- TGI (LOX IMVI melanoma): 0.259 µM
- GI50 (OVCAR-4 ovarian): 4.22 µM
- TGI (OVCAR-4 ovarian): 38.3 µM
- GI50 (HOP-62 NSCLC): 0.0128 µM
- TGI (HOP-62 NSCLC): 15.3 µM
- GI50 ([…]-0 renal): 1.23 µM
- TGI (786-0 renal): 20.7 µM
- GI50 (CAKI-1 renal): 0.0109 µM
- TGI (CAKI-1 renal): 13.3 µM
- GI50 (HCT-15 colon): 0.301 µM
- TGI (HCT-15 colon): > 100 µM
- GI50 (CCRF-CEM leukemia): 13.3 µM
- TGI (CCRF-CEM leukemia): 27 µM
- GI50 (SF-539 CNS): 0.288 µM
- TGI (SF-539 CNS): 11.7 µM
- GI50 (U251 glioblastoma): 0.0466 µM
- TGI (U251 glioblastoma): 10.6 µM
- GI50 (OVCAR-3 ovarian): 11.2 µM
- TGI (OVCAR-3 ovarian): 29.1 µM
- GI50 (ACHN renal): 7.88 µM
- TGI (ACHN renal): > 100 µM
- GI50 (T-47D breast): 15.2 µM
- TGI (T-47D breast): 43.1 µM
- GI50 (SN12C renal): < 0.01 µM
- TGI (SN12C renal): 17.9 µM
- GI50 (UACC-62 melanoma): < 0.01 µM
- TGI (UACC-62 melanoma): 0.0159 µM
- GI50 (OVCAR-8 ovarian): 2.6 µM
- TGI (OVCAR-8 ovarian): 18.2 µM
- GI50 (NCI-H522 lung): 11.8 µM
- TGI (NCI-H522 lung): 26.4 µM
- GI50 (DU-145 prostate): 2.14 µM
- TGI (DU-145 prostate): 22.4 µM
- GI50 (NCI-H226 lung): 1.01 µM
- TGI (NCI-H226 lung): 18.3 µM
- GI50 (MALME-3M melanoma): < 0.01 µM
- TGI (MALME-3M melanoma): < 0.01 µM
- GI50 (RPMI-8226 leukemia): 2.16 µM
- TGI (RPMI-8226 leukemia): 20.9 µM
- GI50 (NCI-H23 lung): < 0.01 µM
- TGI (NCI-H23 lung): 0.077 µM
- GI50 (SF-268 CNS): 9.41 µM
- TGI (SF-268 CNS): 22.9 µM
- GI50 (KM12 colon): < 0.01 µM
- TGI (KM12 colon): 17.9 µM
- GI50 (COLO 205 colon): < 0.01 µM
- TGI (COLO 205 colon): 0.0258 µM
- GI50 (IGROV1 ovarian): < 0.01 µM
- TGI (IGROV1 ovarian): 12.6 µM
- GI50 (MDA-MB-468 breast): 6.92 µM
- TGI (MDA-MB-468 breast): 21.5 µM
- GI50 (MOLT-4 leukemia): 14.8 µM
- TGI (MOLT-4 leukemia): 31.7 µM
- GI50 (M14 melanoma): < 0.01 µM
- TGI (M14 melanoma): < 0.01 µM
- GI50 (TK-10 renal): 0.0704 µM
- TGI (TK-10 renal): 27.4 µM
- GI50 (NCI-H460 NSCLC): < 0.01 µM
- TGI (NCI-H460 NSCLC): 22.1 µM
- GI50 (A549 NSCLC): 0.026 µM
- TGI (A549 NSCLC): 11.1 µM
- GI50 (HS 578T breast): 1.22 µM
- TGI (HS 578T breast): 7.01 µM
- GI50 (UACC-257 melanoma): < 0.01 µM
- TGI (UACC-257 melanoma): < 0.01 µM
- GI50 (K-562 leukemia): 0.0267 µM
- TGI (K-562 leukemia): 14.7 µM
- GI50 (SF-295 CNS): 11.1 µM
- TGI (SF-295 CNS): 26.2 µM
- GI50 (RXF 393 renal): 0.196 µM
- TGI (RXF 393 renal): 15.1 µM
- GI50 (NCI-H322M lung): 0.0325 µM
- TGI (NCI-H322M lung): 15.5 µM
- GI50 (SK-OV-3 ovarian): 2.76 µM
- TGI (SK-OV-3 ovarian): 18.7 µM
- GI50 (SR leukemia): 0.087 µM
- TGI (SR leukemia): 2.39 µM
- GI50 (EKVX NSCLC): 0.153 µM
- TGI (EKVX NSCLC): 17.8 µM
- GI50 (SK-MEL-5 melanoma): < 0.01 µM
- TGI (SK-MEL-5 melanoma): 15.8 µM
- GI50 (HCT-116 colon): < 0.01 µM
- TGI (HCT-116 colon): 0.191 µM
- GI50 (A498 renal): 11.9 µM
- TGI (A498 renal): 32.4 µM
- GI50 (SNB-75 CNS): 0.34 µM
- TGI (SNB-75 CNS): 15.7 µM
- GI50 (HT29 colon): < 0.01 µM
- TGI (HT29 colon): 14.3 µM
- GI50 (BT-549 breast): 10 µM
- TGI (BT-549 breast): 25.4 µM
- GI50 (HL-60(TB) leukemia): < 0.01 µM
- TGI (HL-60(TB) leukemia): < 0.01 µM
- GI50 (SW-620 colon): < 0.01 µM
- TGI (SW-620 colon): 12.5 µM
- GI50 (SK-MEL-28 melanoma): < 0.01 µM
- TGI (SK-MEL-28 melanoma): < 0.01 µM
- GI50 (MDA-MB-231 breast): < 0.01 µM
- TGI (MDA-MB-231 breast): 1.02 µM
- GI50 (NCI/ADR-RES ovarian): 23.1 µM
- TGI (NCI/ADR-RES ovarian): > 100 µM
- GI50 (HCC-2998 colon): < 0.01 µM
- TGI (HCC-2998 colon): 0.0101 µM
- GI50 (MDA-MB-435 melanoma): < 0.01 µM
- TGI (MDA-MB-435 melanoma): 21.1 µM
- GI50 (MCF7 breast): 11.5 µM
- TGI (MCF7 breast): 47.2 µM
- GI50 (SNB-19 CNS): 0.0878 µM
- TGI (SNB-19 CNS): 20.6 µM
